Results taken from patent US5955440A, “Macrolide LHRH antagonists” (Abbott Laboratories, priority 1998, dated 1999).

Molecular target: T1, LHRH rat pituitary receptor (Rattus norvegicus, UniProt P30969)
T1 construct: from tissue; host or cells: rat pituitary
T1 sequence (P30969 1-327): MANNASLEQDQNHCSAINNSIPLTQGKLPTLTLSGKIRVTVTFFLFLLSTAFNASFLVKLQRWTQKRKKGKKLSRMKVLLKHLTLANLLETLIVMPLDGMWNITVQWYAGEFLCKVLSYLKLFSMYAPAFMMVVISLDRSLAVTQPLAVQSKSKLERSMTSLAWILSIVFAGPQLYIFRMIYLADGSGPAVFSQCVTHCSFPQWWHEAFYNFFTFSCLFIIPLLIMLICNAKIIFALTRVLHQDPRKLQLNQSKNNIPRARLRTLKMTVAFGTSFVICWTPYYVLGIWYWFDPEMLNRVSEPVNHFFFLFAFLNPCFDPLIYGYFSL
Assay: LHRH rat pituitary receptor binding (pKI)
Settings: negative logarithm of the equilibrium dissociation constants; for Ki: Table 1, read-out: receptor binding affinity (pKI) (converted)
Method: Representative compounds of the present invention were evaluated in in vitro tests for LHRH rat pituitary receptor binding (pKI) and for LH inhibition from rat pituitary cells for antagonist potency (pA2). The tests employed the methods detailed in F. Haviv, et al. J. Med. Chem., 32: 2340-2344 (1989). The receptor binding affinity (pKI) is the negative logarithm of the equilibrium dissociation constants.

Row | SMILES | Ki [nM] | receptor binding affinity (pKI) (Table 1)
1 | CC[C@H]1OC(=O)[C@H](C)[C@@H](O[C@H]2C[C@@](C)(OC)[C@@H](O)[C@H](C)O2)[C@H](C)[C@@H](O[C@@H]2O[C@H](C)C[C@H](N(C)Cc3ccc(-c4ccc(Cl)cc4)o3)[C@H]2O)[C@](C)(OC)C[C@@H](C)C(=O)[C@H](C)[C@H]2N(CCc3ccc(Cl)c(Cl)c3)C(=O)O[C@]12C [Example 67, 3'-N-Desmethyl-3'-N-[5-(4-chlorophenyl)-2-furylmethyl]-11-deoxy-11-[carboxy-(3,4-dichlorophenethylamino)]-6-O-methyl-erythromycin A 11,12-(cyclic carbamate)] | 7.76 | –
2 | CC[C@H]1OC(=O)[C@H](C)[C@@H](O[C@H]2C[C@@](C)(OC)[C@@H](O)[C@H](C)O2)[C@H](C)[C@@H](O[C@@H]2O[C@H](C)C[C@H](N(C)Cc3ccc([N+](=O)[O-])o3)[C@H]2O)[C@](C)(OC)C[C@@H](C)C(=O)[C@H](C)[C@H]2N(CCc3ccc(Cl)c(Cl)c3)C(=O)O[C@]12C [Example 68, 3'-N-Desmethyl-3'-N-[5-nitro-2-furylmethyl]-11-deoxy-11-[carboxy-(3,4-dichlorophenethylamino)]-6-O-methyl-erythromycin A 11,12-(cyclic carbamate)] | 5.13 | –
3 | CC[C@H]1OC(=O)[C@H](C)[C@@H](O[C@H]2C[C@@](C)(OC)[C@@H](O)[C@H](C)O2)[C@H](C)[C@@H](O[C@@H]2O[C@H](C)C[C@H](N(C)CC3CC(OC)OC3OC)[C@H]2O)[C@](C)(OC)C[C@@H](C)C(=O)[C@H](C)[C@H]2N(CCc3ccc(Cl)c(Cl)c3)C(=O)O[C@]12C (stereo partly shown) [Example 69, 3'-N-Desmethyl-3'-N-[2,5-dimethoxy-3-tetrahydrofurylmethyl]-11-deoxy-11-[carboxy-(3,4-dichlorophenethylamino)]-6-O-methyl-erythromycin A 11,12-(cycliccarbamate)] | 6.17 | –
4 | CC[C@H]1OC(=O)[C@H](C)[C@@H](O[C@H]2C[C@@](C)(OC)[C@@H](O)[C@H](C)O2)[C@H](C)[C@@H](O[C@@H]2O[C@H](C)C[C@H](N(C)Cc3cccc(C)n3)[C@H]2O)[C@](C)(OC)C[C@@H](C)C(=O)[C@H](C)[C@H]2N(CCc3ccc(Cl)c(Cl)c3)C(=O)O[C@]12C [Example 70, 3'-N-Desmethyl-3'-N-[6-methyl-2-pyridylmethyl]-11-deoxy-11-[carboxy-(3,4-dichlorophenethylamino)]-6-O-methyl-erythromycin A 11,12-(cyclic carbamate)] | 5.89 | –
5 | CC[C@H]1OC(=O)[C@H](C)[C@@H](O[C@H]2C[C@@](C)(OC)[C@@H](O)[C@H](C)O2)[C@H](C)[C@@H](O[C@@H]2O[C@H](C)C[C@H](N(C)CCCC(F)(F)F)[C@H]2O)[C@](C)(OC)C[C@@H](C)C(=O)[C@H](C)[C@H]2N(CCc3ccc(Cl)c(Cl)c3)C(=O)O[C@]12C [Example 71, 3'-N-Desmethyl-3'-N-(4,4,4-trifluorobutyl)-11-deoxy-11-[carboxy-(3,4-dichlorophenethylamino)]-6-O-methyl-erythromycin A 11,12-(cyclic carbamate)] | 6.17 | –
6 | CC[C@H]1OC(=O)[C@H](C)[C@@H](O[C@H]2C[C@@](C)(OC)[C@@H](O)[C@H](C)O2)[C@H](C)[C@@H](O[C@@H]2O[C@H](C)C[C@H](N(C)Cc3ccc4ccccc4c3Br)[C@H]2O)[C@](C)(OC)C[C@@H](C)C(=O)[C@H](C)[C@H]2N(CCc3ccc(Cl)c(Cl)c3)C(=O)O[C@]12C [Example 72, 3'-N-Desmethyl-3'-N-(1-bromo-2-napthylmethyl)-11-deoxy-11-[carboxy-(3,4-dichlorophenethylamino)]-6-O-methyl-erythromycin A 11,12-(cyclic carbamate)] | 0.676 | –
7 | CC[C@H]1OC(=O)[C@H](C)[C@@H](O[C@H]2C[C@@](C)(OC)[C@@H](O)[C@H](C)O2)[C@H](C)[C@@H](O[C@@H]2O[C@H](C)C[C@H](N(C)Cc3ccc(C)c4ccccc34)[C@H]2O)[C@](C)(OC)C[C@@H](C)C(=O)[C@H](C)[C@H]2N(CCc3ccc(Cl)c(Cl)c3)C(=O)O[C@]12C [Example 73, 3'-N-Desmethyl-3'-N-(4-methyl-1-napthylmethyl)-11-deoxy-11-[carboxy-(3,4-dichlorophenethylamino)]-6-O-methyl-erythromycin A 11,12-(cyclic carbamate)] | 0.214 | –
8 | CC[C@H]1OC(=O)[C@H](C)[C@@H](O[C@H]2C[C@@](C)(OC)[C@@H](O)[C@H](C)O2)[C@H](C)[C@@H](O[C@@H]2O[C@H](C)C[C@H](N(C)Cc3ccc(N(C)C)c4ccccc34)[C@H]2O)[C@](C)(OC)C[C@@H](C)C(=O)[C@H](C)[C@H]2N(CCc3ccc(Cl)c(Cl)c3)C(=O)O[C@]12C [Example 74, 3'-N-Desmethyl-3'-N-(4-dimethylamino-1-napthylmethyl)-11-deoxy-11-[carboxy-(3,4-dichlorophenethylamino)]-6-O-methyl-erythromycin A 11,12-(cyclic carbamate)] | 3.16 | –
9 | CC[C@H]1OC(=O)[C@H](C)[C@@H](O[C@H]2C[C@@](C)(OC)[C@@H](O)[C@H](C)O2)[C@H](C)[C@@H](O[C@@H]2O[C@H](C)C[C@H](N(C)Cc3ccco3)[C@H]2O)[C@](C)(OC)C[C@@H](C)C(=O)[C@H](C)[C@H]2N(CCc3ccc(Cl)c(Cl)c3)C(=O)O[C@]12C [Example 75, 3'-N-Desmethyl-3'-N-(2-furylmethyl)-11-deoxy-11-[carboxy-(3,4-dichlorophenethylamino)]-6-O-methyl-erythromycin A 11,12-(cyclic carbamate)] | 1.26 | –
10 | CC[C@H]1OC(=O)[C@H](C)[C@@H](O[C@H]2C[C@@](C)(OC)[C@@H](O)[C@H](C)O2)[C@H](C)[C@@H](O[C@@H]2O[C@H](C)C[C@H](N(C)CCCc3ccncc3)[C@H]2O)[C@](C)(OC)C[C@@H](C)C(=O)[C@H](C)[C@H]2N(CCc3ccc(Cl)c(Cl)c3)C(=O)O[C@]12C [Example 76, 3'-N-Desmethyl-3'-N-[3-(4-pyridyl)propyl]-11-deoxy-11-[carboxy-(3,4-dichlorophenethylamino)]-6-O-methyl-erythromycin A 11,12-(cyclic carbamate)] | 9.12 | –
11 | CC[C@H]1OC(=O)[C@H](C)[C@@H](O[C@H]2C[C@@](C)(OC)[C@@H](O)[C@H](C)O2)[C@H](C)[C@@H](O[C@@H]2O[C@H](C)C[C@H](N(C)CCCc3ccccn3)[C@H]2O)[C@](C)(OC)C[C@@H](C)C(=O)[C@H](C)[C@H]2N(CCc3ccc(Cl)c(Cl)c3)C(=O)O[C@]12C [Example 77, 3'-N-Desmethyl-3'-N-[3-(2-pyridyl)propyl]-11-deoxy-11-[carboxy-(3,4-dichlorophenethylamino)]-6-O-methyl-erythromycin A 11,12-(cyclic carbamate)] | 6.17 | –
12 | CC[C@H]1OC(=O)[C@H](C)[C@@H](O[C@H]2C[C@@](C)(OC)[C@@H](O)[C@H](C)O2)[C@H](C)[C@@H](O[C@@H]2O[C@H](C)C[C@H](N(C)CCCCc3ccncc3)[C@H]2O)[C@](C)(OC)C[C@@H](C)C(=O)[C@H](C)[C@H]2N(CCc3ccc(Cl)c(Cl)c3)C(=O)O[C@]12C [Example 78, 3'-N-Desmethyl-3'-N-[4-(4-pyridyl)butyl]-11-deoxy-11-[carboxy-(3,4-dichlorophenethylamino)]-6-O-methyl-erythromycin A 11,12-(cyclic carbamate)] | 7.94 | –
13 | CC[C@H]1OC(=O)[C@H](C)[C@@H](O[C@H]2C[C@@](C)(OC)[C@@H](O)[C@H](C)O2)[C@H](C)[C@@H](O[C@@H]2O[C@H](C)C[C@H](N(C)CCCc3cccnc3)[C@H]2O)[C@](C)(OC)C[C@@H](C)C(=O)[C@H](C)[C@H]2N(CCc3ccc(F)c(Cl)c3)C(=O)O[C@]12C [Example 80, 3'-N-Desmethyl-3'-N-[3-(3-pyridyl)propyl]-11-deoxy-11-[carboxy-(3-chloro-4-fluorophenethylamino)]-6-O-methyl-erythromycin A 11,12-(cyclic carbamate)] | 3.98 | –
14 | CC[C@H]1OC(=O)[C@H](C)[C@@H](O[C@H]2C[C@@](C)(OC)[C@@H](O)[C@H](C)O2)[C@H](C)[C@@H](O[C@@H]2O[C@H](C)C[C@H](N(C)CCCc3ccncc3)[C@H]2O)[C@](C)(OC)C[C@@H](C)C(=O)[C@H](C)[C@H]2N(CCc3ccc(F)c(Cl)c3)C(=O)O[C@]12C [Example 81, 3'-N-Desmethyl-3'-N-[3-(4-pyridyl)propyl]-11-deoxy-11-[carboxy-(3-chloro-4-fluorophenethylamino)]-6-O-methyl-erythromycin A 11,12-(cyclic carbamate)] | 4.37 | –
15 | CC[C@H]1OC(=O)[C@H](C)[C@@H](O[C@H]2C[C@@](C)(OC)[C@@H](O)[C@H](C)O2)[C@H](C)[C@@H](O[C@@H]2O[C@H](C)C[C@H](N(C)CCCc3ccccn3)[C@H]2O)[C@](C)(OC)C[C@@H](C)C(=O)[C@H](C)[C@H]2N(CCc3ccc(F)c(Cl)c3)C(=O)O[C@]12C [Example 82, 3'-N-Desmethyl-3'-N-[3-(2-pyridyl)propyl]-11-deoxy-11-[carboxy-(3-chloro-4-fluorophenethylamino)]-6-O-methyl-erythromycin A 11,12-(cyclic carbamate)] | 2.29 | –
16 | CC[C@H]1OC(=O)[C@H](C)[C@@H](O[C@H]2C[C@@](C)(OC)[C@@H](O)[C@H](C)O2)[C@H](C)[C@@H](O[C@@H]2O[C@H](C)C[C@H](N(C)CCCCc3ccncc3)[C@H]2O)[C@](C)(OC)C[C@@H](C)C(=O)[C@H](C)[C@H]2N(CCc3ccc(F)c(Cl)c3)C(=O)O[C@]12C [Example 83, 3'-N-Desmethyl-3'-N-[4-(4-pyridyl)butyl]-11-deoxy-11-[carboxy-(3-chloro-4-fluorophenethylamino)]-6-O-methyl-erythromycin A 11,12-(cyclic carbamate)] | – | 8.46
